Reference: paper PMC9145483, “Substituted Purines as High-Affinity Histamine H3 Receptor Ligands” (Pharmaceuticals, 2022)
Read-outs that look alike come from different tables or passages of the source.

Assays:
H3R = target: H3R; set-up: method as in PMID 30025902, PMID 31176569; settings: H3R affinity of previous ligands; cited from earlier work
human histamine H3R = target: T1, human histamine H3R (Homo sapiens, UniProt Q9Y5N1); assay: Human histamine H3 radioligand displacement ([3H]Nα-methylhistamine); assay type: binding
T1 construct: expressed in transfected cells; host or cells: HEK-293 cells, stably expressing; membrane preparations

HEK-293 cell line = assay: MTT cytotoxicity assay, HEK-293; assay type: cell-based; settings: HEK-293, MTT, 48 h, 0.1 to 100 μM
Description: (§1) The potential general nephrotoxic, neurotoxic and hepatotoxic effects of selected H3R ligands 3d and 3h were investigated to determine their influence on the viability of normal HEK-293, neuroblastoma SH-SY5Y and hepatoma HepG2 cell lines by a colorimetric MTT reduction assay (Table 2).
(§2) Cultures of HEPG2 (ATCC-HB-8065 TM), HEK293 (ATCC CRL-1573 TM) and SHSY-5Y (ATCC CRL-2266 TM) cell lines were used as experimental models. Cells were maintained in a DMEM culture medium supplemented with 10% Foetal Bovine Serum (FBS), in an incubator at 37 °C and a humidified atmosphere with 5% CO2. Cells were seeded on culture plates, were allowed to grow for 24 h and then were treated with the synthesized compounds for 48 h with 100, 10, 1 and 0.1 µM concentrations. Negative cell death control, corresponding to untreated cells, and positive cell death control, corresponding to cells treated with 10% SDS, were maintained.
(§3) In a colorimetric MTT reduction assay, sterile 96-well culture plates were used. An amount of 2000–2500 cells per well were seeded. Upon completion of treatment, the culture medium was vacuum aspirated and washed with 1x PBS, and then 100 μL of 0.5 mg/mL MTT solution was added for a period of 4 h at 37 °C for formazan crystal formation. […] The absorbance of each well was measured on the Synergy HTX microplate reader at 570 nm wavelength.

[1] = MTT cytotoxicity assay, HEK-293; assay type: cell-based; settings: human, HEK-293 cells, HEK-293, MTT, 0.1 to 100 μM
Description: as §1, §2, §3

hepatoma HepG2 cell line = assay: MTT cytotoxicity assay, HepG2; assay type: cell-based; settings: 48 h, 0.1 to 100 μM
Description: as §1, §2
(§4) In a colorimetric MTT reduction assay, sterile 96-well culture plates were used. An amount of 2000–2500 cells per well were seeded. Upon completion of treatment, the culture medium was vacuum aspirated and washed with 1x PBS, and then 100 μL of 0.5 mg/mL MTT solution was added for a period of 4 h at 37 °C for formazan crystal formation. At the end of the 4 h, 100 μL of 10% SDS in HCl was added and kept overnight in an incubator at 37 °C to dissolve the formed crystals. The absorbance of each well was measured on the Synergy HTX microplate reader at 570 nm wavelength.

[2] = MTT cytotoxicity assay, HepG2; assay type: cell-based; settings: human, HepG2 hepatoma cells, 0.1 to 100 μM
Description: as §1, §2, §4

[3] = system: neuroblastoma SH-SY5Y cell line; assay: MTT cytotoxicity assay, SH-SY5Y; assay type: cell-based; settings: 48 h, 0.1 to 100 μM
Description: as §1, §2, §3

[4] = MTT cytotoxicity assay, SH-SY5Y; assay type: cell-based; settings: human, SH-SY5Y neuroblastoma cells, 0.1 to 100 μM
Description: as §1, §2, §3

[5] = [3H]Nα-methylhistamine 2 nM, HEK-293 membranes stably expressing human H3R, mean [95% CI], at least three experiments in duplicate, read-out: Ki (nM) [95% CI nM]
[6] = restated in Table 3, read-out: Biological Activity Ki

T1 sequence (Q9Y5N1 whole entry): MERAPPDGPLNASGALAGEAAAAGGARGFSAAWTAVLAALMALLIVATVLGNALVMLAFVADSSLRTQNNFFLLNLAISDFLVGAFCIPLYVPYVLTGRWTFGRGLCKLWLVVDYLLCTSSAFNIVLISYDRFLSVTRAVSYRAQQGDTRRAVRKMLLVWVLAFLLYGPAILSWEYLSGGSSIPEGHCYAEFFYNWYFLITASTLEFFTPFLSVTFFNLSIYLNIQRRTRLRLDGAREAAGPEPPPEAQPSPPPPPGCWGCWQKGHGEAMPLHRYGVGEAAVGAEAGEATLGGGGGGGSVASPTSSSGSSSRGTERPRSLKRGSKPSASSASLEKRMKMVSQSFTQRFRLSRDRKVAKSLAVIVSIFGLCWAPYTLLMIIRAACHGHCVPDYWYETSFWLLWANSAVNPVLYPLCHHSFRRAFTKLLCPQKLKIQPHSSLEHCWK

Ki (human histamine H3R; [5]) [nM]	Ki (human histamine H3R; [6]) [nM]	SMILES	further results
–	–	Clc1nc(N2CCC(N3CCCCC3)CC2)c2ccn(Cc3ccc4ccccc4c3)c2n1 [II]	Ki (H3R): 126 nM
28.8	28.8	N#Cc1ccc(Cn2cnc3c(N4CCC(N5CCCCC5)CC4)ncnc32)cc1 [Compound 3c, 4-((6-([1,4’-Bipiperidin]-1’-yl)-9H-purin-9-yl)methyl)benzonitrile]	–
5.51	5.5	Clc1nc(N2CCC(N3CCCCC3)CC2)c2ncn(Cc3c(Cl)cccc3Cl)c2n1 [Compound 3h, 6-([1,4’-Bipiperidin]-1’-yl)-2-chloro-9-(2,6-dichlorobenzyl)-9H-purine]	IC50 (HEK-293 cell line): 54.3 ± 3.54 µM; IC50 at 48 h [1]: > 30 µM; IC50 (hepatoma HepG2 cell line): 33.8 ± 4.29 µM; IC50 at 48 h [2]: > 30 µM; IC50 [3]: 32.4 ± 4.75 µM; IC50 at 48 h [4]: > 30 µM
105	105	Fc1ccc(Cn2cnc3c(N4CCC(N5CCCCC5)CC4)ncnc32)cc1 [Compound 3a, 6-([1,4’-Bipiperidin]-1’-yl)-9-(4-fluorobenzyl)-9H-purine]	–
44.6	44.6	Clc1ccc(Cn2cnc3c(N4CCC(N5CCCCC5)CC4)nc(Cl)nc32)cc1 [Compound 3f, 6-([1,4’-Bipiperidin]-1’-yl)-2-chloro-9-(4-chlorobenzyl)-9H-purine]	–
2.91	–	Clc1cccc(Cl)c1Cn1cnc2c(N3CCC(N4CCCCC4)CC3)ncnc21 [Compound 3d, 6-([1,4’-Bipiperidin]-1’-yl)-9-(2,6-dichlorobenzyl)-9H-purine]	Ki (human histamine H3R; Table 3, read-out: Biological Activity −logKi (converted)): 2.88 nM; IC50 (hepatoma HepG2 cell line): 57.6 ± 12 µM; IC50 at 48 h [2]: > 30 µM
39.4	39.4	Clc1ccc(Cn2cnc3c(N4CCC(N5CCCCC5)CC4)ncnc32)cc1 [Compound 3b, 6-([1,4’-Bipiperidin]-1’-yl)-9-(4-chlorobenzyl)-9H-purine]	–
–	–	Clc1nc(N2CCC(N3CCCCC3)CC2)c2ccn(Cc3c(Cl)cccc3Cl)c2n1 [III]	Ki (H3R): 6 nM
77.8	77.8	N#Cc1ccc(Cn2cnc3c(N4CCC(N5CCCCC5)CC4)nc(Cl)nc32)cc1 [Compound 3g, 4-((6-([1,4’-Bipiperidin]-1’-yl)-2-chloro-9H-purin-9-yl)methyl)benzonitrile]	–
–	–	CNCCc1cnc[nH]1 [[^3H]N^α-methylhistamine, reference compound]	Kd (human histamine H3R; radioligand used at 2 nM at human H3R): 3.08 nM
94.6	–	Fc1ccc(Cn2cnc3c(N4CCC(N5CCCCC5)CC4)nc(Cl)nc32)cc1 [Compound 3e, 6-([1,4’-Bipiperidin]-1’-yl)-2-chloro-9-(4-fluorobenzyl)-9H-purine]	–
